# Measured values from patent US7205304B2, “Sulfonyl-Derivatives as novel inhibitors of histone deacetylase” (Janssen Pharmaceutica N.V., priority 2002, dated 2007).
# Read-outs that look alike come from different tables or passages of the source.
# Assays:
# [1] = system: A2780 ovarian carcinoma cells; assay: Antiproliferative activity on A2780 cells (MTT); assay type: cell-based, human; conditions: Homo sapiens, four days of incubation, read-out: Cellular activity pIC50 (converted)
# How it was run: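 A2780 ovarian carcinoma cells were seeded at 1500 cells/well and exposed to compound for four days, with DMSO ≤0.1%. Viability was measured by MTT (2 h, 37° C) and expressed as a percentage of untreated controls after blank subtraction. Initial single-point testing was at 10^−6 M, then full curves gave pIC50.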
# [2] = Kinetic solubility in aqueous media (nephelometry); assay type: physicochemical; conditions: phosphate citrate buffer, pH 7.4, aqueous buffer, kinetic from dmso stock, phosphate citrate buffer pH 7.4, turbidity of three dilution steps; read-out: Solubility Score
# How it was run: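 DMSO stock (5 mM) diluted in three consecutive steps into phosphate citrate buffer pH 7.4, in triplicate; turbidity of each dilution read by nephelometry immediately after the last step. Compounds ranked into 3 classes: score 3 if first dilution clear, 2 if first unclear but second clear.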
# [3] = molecular target: histone deacetylase (HeLa nuclear extracts); assay: In vitro assay for inhibition of histone deacetylase; assay type: biochemical; conditions: [3H]acetylated histone H4 peptide substrate
# [4] = system: A 2780 ovarium carcinoma cells; assay: A2780 mouse xenograft model; assay type: in vivo; conditions: orally 10, 20 and 40 mpk once daily, day 4 to day 32; two independent studies; maximal inhibition once at 20 mpk, once at 40 mpk
# Experimental: Immunodeficient mice were injected subcutaneously with A 2780 ovarium carcinoma cells (10^7cells/200 μl/mouse). Subsequently they were orally treated with 10, 20 and 40 mpk of compound once daily between day 4 and day 32. The compound was dissolved in 0.9% NaCl, 20% β-cyclodextrine. On day 32 tumours were harvested and individual tumour weight of each mouse was determined. Each experiment included 10 mice.
# [5] = not given; remark: listed apart in the source
SMILES,"IC50 ([1]; A2780, 96 h) [nM]",solubility [2] [µM],Enzyme activity pIC50 [3],melting point [°C],IC50 ([1]; 96 h) [nM],antitumoural effect (tumour weight on day 32) [4],"% metabolism of the compound after 15 min of incubation ([5]; 5 μM compound, microsomes 1 mg/ml, NADPH-generating system) [%]","% metabolism of the compound after 15 min of incubation ([5]; human, 15 min, 5 μM) [%]"
CN(C)CC1CN(c2ncc(C(=O)NO)cn2)CCN1S(=O)(=O)c1ccc2ccccc2c1 (stereo not shown) [Compound 123],2580,> 454,6.787,114,,,,
O=C(NO)c1ccc(N2CCN(S(=O)(=O)c3ccc4ccccc4c3)CC2)nn1 [Compound 120],1010,< 75.8,6.491,> 260,,,,
CN(C)Cc1ccccc1-c1ccc(S(=O)(=O)N2CCN(c3ncc(C(=O)NO)cn3)CC2)cc1 [Compound 126],103,< 75.8,8.456,190.7,,,,
CC(=O)Nc1ccc(N2CCN(S(=O)(=O)c3ccc4ccccc4c3)CC2)cc1 [Compound 3],> 10000,< 75.8,<5,200,,,,
O=C(NO)c1cnc(N2CCN(S(=O)(=O)c3ccc(-c4cccc(CCO)c4)cc3)CC2)nc1 [Compound 129],206,> 454,7.107,> 260,,,,
CC(=O)SCC(=O)c1ccc(N2CCN(S(=O)(=O)c3ccc4ccccc4c3)CC2)cc1 [Compound 10],> 10000,< 75.8,6.7,179,,,,
O=C(NO)c1cnc(N2CCN(S(=O)(=O)c3ccc4ccccc4c3)CC2)nc1 [Compound 6],,75.8 to 454,,,46.1,strong antitumoural effect at all doses,,
CCCO [propanol],,,,,,,25,
O=C(NO)Nc1ccc(N2CCN(S(=O)(=O)c3ccc4ccccc4c3)CC2)cc1 [Compound 4],> 10000,75.8 to 454,<5,210,,,,
COc1cc(N)c(Cl)cc1C(=O)NC1CCN(CCCOc2ccc(F)cc2)CC1OC (stereo not shown) [Cisapride],,,,,,,,45
O=C(NO)c1cnc(N2CCN(S(=O)(=O)c3ccc4ccccc4c3)CC2)cn1 [Compound 116],861,< 75.8,7.159,249,,,,
O=C(NO)c1cnc(N2CCN(S(=O)(=O)c3ccc4ccccc4c3)CC2)nc1NO [Compound 119],> 10000,,5.215,225,,,,
Nc1ccccc1NC(=O)c1cnc(N2CCN(S(=O)(=O)c3ccc4ccccc4c3)CC2)nc1 [Compound 13],442,< 75.8,<5,238,,,,
O=C(NO)c1cnc(N2CCN(S(=O)(=O)c3ccc4ccccc4c3)C(CO)C2)nc1 (stereo not shown) [Compound 121],2770,> 454,6.833,220,,,,
O=C(Nc1ccc(N2CCN(S(=O)(=O)c3ccc4ccccc4c3)CC2)cc1)/C(Cc1ccccc1)=N/O [Compound 9],3880,,<5,226,,,,
NC(=O)C1CN(c2ncc(C(=O)NO)cn2)CCN1S(=O)(=O)c1ccc2ccccc2c1 (stereo not shown) [Compound 118],5300,> 454,6.741,210,,,,
